Data set [1] relates to MCF7. Nature of the data set: Anticancer activity against human MCF7 cells assessed as cell growth inhibition measured after 48 hrs by sulforhodamine B staining based analysis. The class given is functional. Background: Sulforhodamine B stains cellular protein and so reports cell mass.
Data set [2] has as its system NCI-H460. Briefly: Anticancer activity against human NCI-H460 cells assessed as cell growth inhibition measured after 48 hrs by sulforhodamine B staining based analysis. The class given is functional.
Data set [3] relates to SF-268. Nature of the data set: Anticancer activity against human SF-268 cells assessed as cell growth inhibition measured after 48 hrs by sulforhodamine B staining based analysis. In kind it is functional.
A short description of data set [4]: Cytotoxicity against human WI-38 cells assessed as cell growth inhibition measured after 48 hrs by sulforhodamine B staining based analysis. The class given is toxicity.
Data set [5] concerns Pseudomonas aeruginosa. Nature of the data set: Antibacterial activity against Pseudomonas aeruginosa assessed as cell growth inhibition measured after 24 hrs by serial broth-dilution method. The class given is functional.
In data set [6] the test system is Salmonella typhi. Briefly: Antibacterial activity against Salmonella typhi ATCC 11778 assessed as bacterial growth inhibition at 50 ug/ml incubated for 24 hrs relative to control. The settings on record: dose 50 µg/ml. The class given is functional, Salmonella enterica subsp. enterica serovar Typhi. Details: scale not given: the % may be the effect or the level left.

In data set [7] the test system is Shigella dysenteriae. Nature of the data set: Antibacterial activity against Shigella dysenteriae ATCC 49345 assessed as bacterial growth inhibition at 50 ug/ml incubated for 24 hrs relative to control. Details: scale not given: the % may be the effect or the level left. In kind it is functional. Conditions: dose 50 µg/ml.
For data set [8], the system named is Hepatitis C virus. Briefly: Antiviral activity against HCV GT-1b infected in human Huh-5-2 cells carrying HCV subgenomic replicons assessed as inhibition of viral replication by quantitative RT-PCR assay. The class given is functional, organism-based, Hepacivirus hominis. Conditions: subtype 1b. Background: Replicon systems follow genome replication, usually without infectious particles.

Data set [9] concerns HeLa. Briefly: Anticancer activity against human HeLa cells assessed as cell growth inhibition by SRB method. The class given is functional.
Data set [10] concerns the target Carbonic anhydrase 1 (Homo sapiens, UniProt P00915). Nature of the data set: Inhibition of human carbonic anhydrase-1 by stopped flow CO2 hydrase assay.
Data set [11] deals with Carbonic anhydrase 2 (Homo sapiens, UniProt P00918). Briefly: Inhibition of human carbonic anhydrase-2 by stopped flow CO2 hydrase assay.
Data set [12] deals with Staphylococcus aureus. Nature of the data set: Antibacterial activity against Staphylococcus aureus assessed as zone of inhibition at 1000 ug/ml measured after 24 hrs by cup plate method. Conditions: read-out: DIZ. In kind it is functional.
In data set [13] the test system is Bacillus subtilis. Briefly: Antibacterial activity against Bacillus subtilis assessed as zone of inhibition at 1000 ug/ml measured after 24 hrs by cup plate method. In kind it is functional. The settings on record: read-out: DIZ.
The test system of data set [14] is Pseudomonas aeruginosa. Nature of the data set: Antibacterial activity against Pseudomonas aeruginosa assessed as zone of inhibition at 1000 ug/ml measured after 24 hrs by cup plate method. Conditions: read-out: DIZ. In kind it is functional.
Data set [15] concerns Escherichia coli. Nature of the data set: Antibacterial activity against Escherichia coli assessed as zone of inhibition at 1000 ug/ml measured after 24 hrs by cup plate method. The class given is functional. The settings on record: read-out: DIZ.
Data set [16] concerns Aspergillus niger. Nature of the data set: Antifungal activity against Aspergillus niger assessed as zone of inhibition at 1000 ug/ml measured after 24 hrs by cup plate method. The settings on record: read-out: DIZ. The class given is functional.
For data set [17], the system named is Aspergillus flavus. Nature of the data set: Antifungal activity against Aspergillus flavus assessed as zone of inhibition at 1000 ug/ml measured after 24 hrs by cup plate method. In kind it is functional. The settings on record: read-out: DIZ.
Data set [18] relates to Aspergillus terreus. Nature of the data set: Antifungal activity against Aspergillus terreus assessed as zone of inhibition at 1000 ug/ml measured after 24 hrs by cup plate method. In kind it is functional. Conditions: read-out: DIZ.
Data set [19] deals with Rattus norvegicus. Briefly: Antiinflammatory activity in formalin induced fasted albino rat paw oedema model assessed as inhibition of paw oedema at 100 mg/kg, po measured after 4 hrs by plethysmograph analysis relative to control. Details: scale not given: the % may be the effect or the level left. The class given is functional.
Data set [20] is described as follows: Antioxidant activity assessed as DPPH radical scavenging activity incubated for 30 mins in dark condition by spectrophotometrical analysis. The class given is functional. Background: Loss of DPPH colour is used to gauge radical scavenging.
Data set [21] deals with Staphylococcus aureus. Nature of the data set: Antibacterial activity against beta lactamase positive Staphylococcus aureus ATCC 25923 assessed as zone of inhibition at 0.5 mg/ml incubated for 18 hrs by Kirby-Bauer disk diffusion method. The class given is functional. Conditions: read-out: DIZ.
The test system of data set [22] is Rattus norvegicus. Briefly: Antiinflammatory activity in formalin induced Wistar rat paw oedema model assessed as inhibition of paw oedema administered up to 6 hrs by plethysmograph analysis. In kind it is functional, organism-based. Details: scale not given: the % may be the effect or the level left.
Data set [23] deals with Sprivivirus cyprinus. Briefly: Antiviral activity against Carp sprivivirus infected Fathead minnow EPC cells assessed as assessed as suppression of virus-induced cytopathic effect incubated for 48 hrs by CCK-8 assay. In kind it is functional, organism-based.
Data set [24] concerns Rattus norvegicus. Nature of the data set: Antiinflammatory activity in carrageenan induced rat paw oedema model assessed as inhibition of paw oedema, ip pretreated with compound for 30 mins followed by carrageenan injection measured after 3 hrs relative to control. The class given is functional. Details: scale not given: the % may be the effect or the level left. Conditions: time 3.5 hrs.

SMILES strings stand for the structures. Values after ≈ are worked out from the molar mass of the structure shown.

As usually defined, the GI50 is the concentration giving 50% growth inhibition. One may read the MIC as the smallest concentration in the dilution series that meets the test's criterion for growth inhibition. In general, EC50 refers to the concentration that produces a half-maximal response. A word on the IC50: it is the concentration that inhibits the measured activity by half.

Chain of Carbonic anhydrase 1 (P00915 whole entry): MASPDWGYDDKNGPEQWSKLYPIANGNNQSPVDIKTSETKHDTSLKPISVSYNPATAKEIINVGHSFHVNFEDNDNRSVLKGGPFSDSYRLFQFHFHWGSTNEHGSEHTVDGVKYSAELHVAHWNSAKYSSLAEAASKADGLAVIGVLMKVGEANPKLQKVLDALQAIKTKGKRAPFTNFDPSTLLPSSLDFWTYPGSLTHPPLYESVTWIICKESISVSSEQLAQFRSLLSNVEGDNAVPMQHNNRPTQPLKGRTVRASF

Turning to `O=c1oc2ccccc2c2c(O)cn3c4ccccc4nc3c12`, the GI50 in data set [1] turned out to be 24.1 µM; in data set [2], 30.8 µM; in [3], 26.1 µM. In addition, in [4], the GI50 at 48 h came to 25.2 µM.
As for `CC(=O)n1c(-c2cc3ccccc3oc2=O)nc2ccccc21`, the GI50 in data set [1] turned out to be 22.7 µM; in [2] it was 36.5 µM; in [3], 31.5 µM. For the same compound, the GI50 at 48 h in data set [4] was greater than 100 µM.
For `CN[C@@H]1[C@H](O[C@H]2[C@H](O[C@H]3[C@H](O)[C@@H](O)[C@H](N=C(N)N)[C@@H](O)[C@@H]3N=C(N)N)O[C@@H](C)[C@]2(O)C=O)O[C@@H](CO)[C@H](O)[C@H]1O` [STREPTOMYCIN], the MIC in [5] was 2200 µg/mL (≈ 3780 µM).
Turning to `O=c1oc2ccccc2cc1CSc1nc2ccccc2[nH]1`, the Activity in [6] and in [7] was 100% each time.
Consider `O=c1oc2ccc(Br)cc2cc1CSc1nc2cc(F)ccc2[nH]1`, for which the EC50 in data set [8] was found to be 3.4 µM.
On to `COc1ccc2oc(=O)cc(-c3nc4ccccc4n3S(=O)(=O)c3ccc(C)cc3)c2c1`, for which, in data set [9], the GI50 worked out at 35 µg/mL (≈ 78.4 µM).
Take `O=c1cc(Cn2c[n+](CCCCCn3c[n+](Cc4cc(=O)oc5cc(O)ccc45)c4ccccc43)c3ccccc32)c2ccc(O)cc2o1`: the values for the IC50 in [10] and in data set [11] were 99 µM and 89 µM, respectively.
With `Cc1c(C2SCC(=O)N2Nc2nc3ccccc3[nH]2)c(=O)oc2cc(O)ccc12` (centres undefined), the zone of inhibition at 1000 µg/mL in [12], in [13], in data set [14], in data set [15], in [16] and in data set [17] was 13 mm in each case. For the same compound, the zone of inhibition at 1000 µg/mL in data set [18] amounted to 13 mm. In addition, the Activity in data set [19] worked out at 20%.
On to `Cc1cc(C(C)(C)C)c(O)c(C(C)(C)C)c1` [BUTYLATED HYDROXYTOLUENE], for which the EC50 in data set [20] was determined as 23.4 µM.
Take `CC(=O)OC[C@H]1O[C@@H](n2c(SCc3cc4cc(Br)ccc4oc3=O)nc3ccccc32)[C@H](OC(C)=O)[C@@H](OC(C)=O)[C@@H]1OC(C)=O`: the EC50 in data set [8] was 4.1 µM.
On to `O=c1oc2ccc(Br)cc2cc1CSc1nc2ccccc2[nH]1`, for which, in [8], the EC50 was determined as 4 µM. Besides, the Activity in data set [6] and in data set [7] was 100% each time.
Take `CO[C@@H]1[C@@H](OC(N)=O)[C@@H](O)[C@H](Oc2ccc3c(O)c(NC(=O)c4ccc(O)c(CC=C(C)C)c4)c(=O)oc3c2C)OC1(C)C` [NOVOBIOCIN]: in data set [21], the zone of inhibition at 500 µg/mL stood at 25 mm.
As for `O=c1cc(C[n+]2cn(Cc3ccc4ccccc4c3)c3ccccc32)c2ccc(O)cc2o1`, the IC50 in data set [10] was 5.34 µM; in [11] it was 6.01 µM.
For `O=c1oc2ccccc2cc1-c1nc2ccccc2n1C(=S)Nc1ccccc1`, the figures for the GI50 in data set [1], in data set [2] and in [3] were 0.08 µM, 0.05 µM and 0.06 µM, respectively. In addition, in data set [4], the GI50 at 48 h was found to be 28 µM.
As for `O=c1oc2ccc(Cl)cc2cc1CSc1nc2ccc([N+](=O)[O-])cc2[nH]1`, the Activity in data set [6] and in [7] was 100% each time.
Regarding `O=C1CSC(c2cc3ccc(O)cc3oc2=O)N1Nc1nc2ccccc2[nH]1` (centres undefined), the zone of inhibition at 1000 µg/mL in [12], in data set [13], in [14], in data set [15], in [16] and in data set [17] was 13 mm each time. Besides, in data set [18], the zone of inhibition at 1000 µg/mL came out at 13 mm. The Activity in [19] turned out to be 48%.
With `O=c1oc2ccc(Cl)cc2cc1-c1nc2ccccc2[nH]1`, the Activity in data set [22] is recorded as 46.75%.
Regarding `O=c1ccc2cc(OCCCn3cnc4ccccc43)ccc2o1`, the IC50 in data set [23] was determined as 2.2 µg/mL (≈ 6.87 µM).
Turning to `O=c1cc(Cc2nc3ccccc3[nH]2)c2ccccc2o1`, the Activity in data set [24] is recorded as 45%.
As for `O=c1oc2ccccc2c(O)c1S(=O)(=O)Nc1nc2ccccc2[nH]1`, in data set [21], the zone of inhibition at 500 µg/mL is 13 mm.

(Values after ChEMBL document CHEMBL5126506, “Coumarin-benzimidazole hybrids: A review of developments in medicinal chemistry” (Eur J Med Chem, 2022).)
